Converted amounts (≈) assume the structure as drawn.

One data set deals with Canis familiaris. Briefly: Area under the concentration/ time in plasma after oral administration in dog (25 mg/kg). Type of data set: ADME, organism-based, Canis lupus familiaris. As to conditions: in vivo.
The test system of data set [1] is Escherichia coli. Briefly: In vitro antibacterial activity against Escherichia coli (A 15119). The format is functional. Conditions: Escherichia coli; read-out: MIC.
The subject of data set [2] is Escherichia coli. Briefly: In vivo efficacy in systemic infection due to Escherichia coli (A 15119) in mice. Conditions: read-out: PD50. Type of data set: functional.
The subject of data set [3] is Staphylococcus aureus. In words: In vitro antibacterial activity against Staphylococcus aureus Smith (A9537). Type of data set: functional. As to conditions: Staphylococcus aureus; read-out: MIC.
Data set [4] is described as follows: Lethal dose of compound in OF1-strain female swiss mice after oral administration. Type of data set: toxicity, organism-based. Conditions: mouse, in vivo.
Data set [5] deals with Staphylococcus aureus. In words: In vivo efficacy in systemic infection due to Staphylococcus aureus Smith (A 9537) in mice. The format is functional. As to conditions: read-out: PD50.
For data set [6], the system named is Klebsiella pneumoniae. Briefly: In vitro antibacterial activity against Klebsiella pneumoniae (A 9664). The format is functional. As to conditions: Klebsiella pneumoniae; read-out: MIC.
The subject of data set [7] is Pseudomonas aeruginosa. Briefly: In vivo efficacy in systemic infection due to Pseudomonas aeruginosa (A 9843) in mice. As to conditions: read-out: PD50. The format is functional.
Data set [8] can be described thus: Half-life in plasma after oral administration in dog (25 mg/kg). The format is ADME, organism-based, Canis lupus familiaris.
A short description of data set [9]: Urinary recovery after 24 hr in plasma after oral administration in dog (25 mg/kg). Type of data set: ADME, organism-based, Canis lupus familiaris. Conditions: urine, read-out: UR.
A short description of data set [10]: Maximum concentration in plasma after oral administration in dog (25 mg/kg). The format is ADME, organism-based, Canis lupus familiaris. The arrangement: dose 25 mg/kg, route oral.
Data set [11] deals with Klebsiella pneumoniae. In words: In vivo efficacy in systemic infection due to Klebsiella pneumoniae (A 9664) in mice. Conditions: read-out: PD50. The format is functional.
In another data set the test system is Morganella morganii. In words: In vitro antibacterial activity against M. morganii(A 15153). Type of data set: functional.
Data set [12] has as its system Pseudomonas aeruginosa. Briefly: In vitro antibacterial activity against Pseudomonas aeruginosa (A 9843). Type of data set: functional. As to conditions: Pseudomonas aeruginosa; read-out: MIC.
Another data set has as its system Enterobacter cloacae. In words: In vitro antibacterial activity against Enterobacter cloacae (A 9656). Conditions: Enterobacter cloacae; read-out: MIC. The format is functional.

By MIC is commonly meant the lowest concentration that inhibits growth of the organism. As usually defined, the LD50 is the dose at which mortality reaches 50%. A high value points to lower toxicity. In general, half-life refers to how long it takes for the measured level to halve. The low end stands for fast loss, the high end for slow loss. For orientation: Cmax means the maximum level reached in the sampled fluid or tissue. In the data set with Canis familiaris, `CC(C)(C)n1cc(C(=O)O)c(=O)c2cc(F)c(N3CCNCC3)nc21` came in with an AUC of 50 µg/mL. The minimal inhibitory concentration (MIC) with Escherichia coli [1] came to 0.015 µg/mL (≈ 0.0431 µM); in the data set with Staphylococcus aureus [3] it was 0.06 µg/mL (≈ 0.172 µM); in the data set with Klebsiella pneumoniae [6], 0.13 µg/mL (≈ 0.373 µM); in the data set on Morganella morganii, 0.25 µg/mL (≈ 0.718 µM); in the data set with Pseudomonas aeruginosa [12] it was 1 µg/mL (≈ 2.87 µM); in the data set on Enterobacter cloacae it was 0.06 µg/mL (≈ 0.172 µM). For the same molecule, the ED50 with Escherichia coli [2] is 2.4 mg/kg; in the data set with Staphylococcus aureus [5] it was 1.1 mg/kg; in the data set with Pseudomonas aeruginosa [7] it was 12 mg/kg; with Klebsiella pneumoniae [11], 5 mg/kg. The molecule further yielded a 50% lethal dose (LD50) in [4] above 2500 mg/kg. In [8], this molecule showed a half-life of 4.8 h. In addition, the dose excreted at 24 h in data set [9] came out at 12%. The molecule further registered a Cmax in data set [10] of 5800 ng/mL.

These data come from ChEMBL document CHEMBL1124630, “Fluoronaphthyridines and quinolones as antibacterial agents. 1. Synthesis and structure-activity relationships of new 1-substituted derivatives” (J Med Chem, 1989).
